Measured values as given in US4521335A, “Aglycone and pseudo-aglycones of the AAD 216 antibiotics” (SmithKline Beckman Corporation, priority 1984, dated 1985).
Converted amounts (≈) assume the structure as drawn.

Assays:
Staph. aureus SK & F 910 = assay: MIC, standard microtiter assay; format: cell-based
[1] = system: Clostridium difficile SK & F 3062; assay: MIC, standard microtiter assay; format: cell-based; conditions: Clostridioides difficile
[2] = system: C. perfringens SK & F 2769; assay: microbe, parasite or virus in culture; format: cell-based; conditions: Clostridium perfringens
[3] = system: Staph. aureus SK & F 2612; assay: MIC, standard microtiter assay; format: cell-based; conditions: Staphylococcus aureus
B. thetaiotomicron H-145 = assay: MIC, standard microtiter assay; format: cell-based
[4] = system: Staph. aureus SK & F 2589; assay: MIC, standard microtiter assay; format: cell-based; conditions: Staphylococcus aureus
[5] = system: Staph. aureus SK & F 2595; assay: MIC, standard microtiter assay; format: cell-based; conditions: Staphylococcus aureus
[6] = system: Staph. aureus SK & F 2736; assay: MIC, standard microtiter assay; format: cell-based; conditions: Staphylococcus aureus
[7] = system: Clostridium perfringens MCP-1; assay: microbe, parasite or virus in culture; format: cell-based; conditions: MCP1
[8] = system: Listeria monocytogenes SK & F 2255; assay: MIC, standard microtiter assay; format: cell-based
Staph. aureus HH127 = assay: MIC, standard microtiter assay; format: cell-based
[9] = system: Staph. aureus SK & F 2590; assay: MIC, standard microtiter assay; format: cell-based; conditions: Staphylococcus aureus
[10] = system: Staph. aureus SK & F 2591; assay: MIC, standard microtiter assay; format: cell-based; conditions: Staphylococcus aureus
[11] = system: Staph. aureus SK & F 2677; assay: MIC, standard microtiter assay; format: cell-based; conditions: Staphylococcus aureus
[12] = system: Staph. aureus SK & F 2620; assay: MIC, standard microtiter assay; format: cell-based; conditions: Staphylococcus aureus
Staph. aureus SK & F 674 = assay: MIC, standard microtiter assay; format: cell-based; conditions: Staphylococcus aureus
[13] = system: E. coli 12140 (SK & F 809); assay: MIC, standard microtiter assay; format: cell-based; conditions: Escherichia coli
[14] = system: Staph. epidermidis SK & F 2265; assay: MIC, standard microtiter assay; format: cell-based; conditions: Staphylococcus epidermidis
[15] = system: Staph. aureus SK & F 2596; assay: MIC, standard microtiter assay; format: cell-based; conditions: Staphylococcus aureus
[16] = system: Bacteroides fragilis ATCC 25285; assay: MIC, standard microtiter assay; format: cell-based; conditions: ATCC25285
[17] = system: Staph. aureus SK & F 209P-mutant; assay: microbe, parasite or virus in culture; format: cell-based; conditions: Staphylococcus aureus
[18] = system: Strep. faecalis SK & F 657; assay: MIC, standard microtiter assay; format: cell-based; conditions: Enterococcus faecalis
[19] = system: Staph. aureus SK & F 209P; assay: MIC, standard microtiter assay; format: cell-based; conditions: Staphylococcus aureus
[20] = system: Proteus mirabilis SK & F 444; assay: MIC, standard microtiter assay; format: cell-based
C. difficile SK & F 3092 = assay: MIC, standard microtiter assay; format: cell-based; conditions: Clostridioides difficile
C. perfringens MCP-2 = assay: microbe, parasite or virus in culture; format: cell-based; conditions: Clostridium perfringens
C. difficile SK & F 3098 = assay: MIC, standard microtiter assay; format: cell-based; conditions: Clostridioides difficile
[21] = system: Staph. aureus SK & F 2615; assay: MIC, standard microtiter assay; format: cell-based; conditions: Staphylococcus aureus
[22] = system: Staph. aureus SK & F 2592; assay: MIC, standard microtiter assay; format: cell-based; conditions: Staphylococcus aureus
C. difficile SK & F 3096 = assay: MIC, standard microtiter assay; format: cell-based; conditions: Clostridioides difficile
[23] = system: inoculum (ileal or cecal cannula filtrate); assay: swine in vitro model, growth promotant activity; conditions: experiment I, 5 hours, 37° C.; for GLU (% Control): glucose; for LAC (% Control): lactic acid; for LYS (% Control): lysine; for VFA (% Control): total volatile fatty acids
C. difficile SK & F 3091 = assay: MIC, standard microtiter assay; format: cell-based; conditions: Clostridioides difficile
[24] = system: k. pneumoniae 4200 (SK & F 798); assay: MIC, standard microtiter assay; format: cell-based; conditions: Klebsiella pneumoniae
[25] = system: Staph. aureus SK & F 2777; assay: MIC, standard microtiter assay; format: cell-based; conditions: Staphylococcus aureus
Staph. aureus SK & F 675 = assay: MIC, standard microtiter assay; format: cell-based; conditions: Staphylococcus aureus
[26] = system: Salmonella gallinarum SK & F BC595; assay: microbe, parasite or virus in culture; format: cell-based; conditions: Salmonella enterica
[27] = system: B. thetaiotamicron SK & F 3089; assay: MIC, standard microtiter assay; format: cell-based
[28] = system: Pseudomonas aeruginosa HH63; assay: MIC, standard microtiter assay; format: cell-based
[29] = system: Fusobacterium nucleatum ATCC 25586; assay: MIC, standard microtiter assay; format: cell-based
B. fragilis H145 = assay: MIC, standard microtiter assay; format: cell-based; conditions: Bacteroides fragilis
[30] = system: Proteus morgani SK & F 179; assay: MIC, standard microtiter assay; format: cell-based

**Q.** How did the MIC (Staph. aureus SK & F 910; Staphylococcus aureus) turn out when CN[C@H](CC(C)C)C(=O)N[C@H]1C(=O)N[C@@H](CC(N)=O)C(=O)N[C@H]2C(=O)N[C@H]3C(=O)N[C@H](C(=O)N[C@H](C(=O)O)c4cc(O)cc(O)c4-c4cc3ccc4O)[C@H](O)c3ccc(c(Cl)c3)Oc3cc2cc(c3O[C@@H]2O[C@H](CO)[C@@H](O)[C@H](O)[C@H]2O[C@H]2C[C@](C)(N)[C@H](O)[C@H](C)O2)Oc2ccc(cc2Cl)[C@H]1O [Vancomycin, vancomycin] was run?
**A.** 1.6 µg/mL (≈ 1.1 µM)

**Q.** What about the MIC (Staph. aureus SK & F 910; Table A, Staph. aureus SK & F 910) of the same molecule?
**A.** 1.6 µg/mL (≈ 1.1 µM)

**Q.** And the MIC (Staph. aureus SK & F 910; Table E, Staph. aureus SK & F 910)?
**A.** 1.6 µg/mL (≈ 1.1 µM)

**Q.** And the MIC ([1]; Table D, Anaerobes, Clostridium difficile SK & F 3062)?
**A.** 2 µg/mL (≈ 1.38 µM)

**Q.** What about the MIC ([1]; Table F, C. difficile SK & F 3062) of the same molecule?
**A.** 0.5 µg/mL (≈ 0.345 µM)

**Q.** And the MIC [2]?
**A.** 0.5 µg/mL (≈ 0.345 µM)

**Q.** And the MIC [3]?
**A.** 1.6 µg/mL (≈ 1.1 µM)

**Q.** And the MIC (B. thetaiotomicron H-145)?
**A.** > 32 µg/mL

**Q.** What about the MIC [4] of the same molecule?
**A.** 1.6 µg/mL (≈ 1.1 µM)

**Q.** And the MIC [5]?
**A.** 1.6 µg/mL (≈ 1.1 µM)

**Q.** What about the MIC [6] of the same molecule?
**A.** 1.6 µg/mL (≈ 1.1 µM)

**Q.** What about the MIC [7] of the same molecule?
**A.** 0.5 µg/mL (≈ 0.345 µM)

**Q.** And the MIC ([8]; Table A)?
**A.** 1.6 µg/mL (≈ 1.1 µM)

**Q.** What about the MIC ([8]; Table E) of the same molecule?
**A.** 0.8 µg/mL (≈ 0.552 µM)

**Q.** What about the MIC (Staph. aureus HH127; Staphylococcus aureus, HH127) of the same molecule?
**A.** 1.6 µg/mL (≈ 1.1 µM)

**Q.** What about the MIC (Staph. aureus HH127; Table A, Staph. aureus HH127) of the same molecule?
**A.** 1.6 µg/mL (≈ 1.1 µM)

**Q.** And the MIC (Staph. aureus HH127; Table E, Staph. aureus HH127)?
**A.** 1.6 µg/mL (≈ 1.1 µM)

**Q.** What about the MIC [9] of the same molecule?
**A.** 1.6 µg/mL (≈ 1.1 µM)

**Q.** What about the MIC [10] of the same molecule?
**A.** 1.6 µg/mL (≈ 1.1 µM)

**Q.** What about the MIC [11] of the same molecule?
**A.** 1.6 µg/mL (≈ 1.1 µM)

**Q.** What about the MIC [12] of the same molecule?
**A.** 3.1 µg/mL (≈ 2.14 µM)

**Q.** What about the MIC (Staph. aureus SK & F 674) of the same molecule?
**A.** 1.6 µg/mL (≈ 1.1 µM)

**Q.** And the MIC [13]?
**A.** 100 µg/mL (≈ 69 µM)

**Q.** What about the MIC [14] of the same molecule?
**A.** 3.1 µg/mL (≈ 2.14 µM)

**Q.** What about the MIC [15] of the same molecule?
**A.** 3.1 µg/mL (≈ 2.14 µM)

**Q.** And the MIC [16]?
**A.** 32 µg/mL (≈ 22.1 µM)

**Q.** What about the MIC [17] of the same molecule?
**A.** 100 µg/mL (≈ 69 µM)

**Q.** What about the MIC [18] of the same molecule?
**A.** 3.1 µg/mL (≈ 2.14 µM)

**Q.** And the MIC [19]?
**A.** 1.6 µg/mL (≈ 1.1 µM)

**Q.** What about the MIC [20] of the same molecule?
**A.** 100 µg/mL (≈ 69 µM)

**Q.** And the MIC (C. difficile SK & F 3092; Table D, Anaerobes)?
**A.** 2 µg/mL (≈ 1.38 µM)

**Q.** And the MIC (C. difficile SK & F 3092; Table F)?
**A.** 0.5 µg/mL (≈ 0.345 µM)

**Q.** What about the MIC (C. perfringens MCP-2; MCP2, Table D, Anaerobes) of the same molecule?
**A.** 0.5 µg/mL (≈ 0.345 µM)

**Q.** And the MIC (C. perfringens MCP-2; MCP2, Table F)?
**A.** 2 µg/mL (≈ 1.38 µM)

**Q.** And the MIC (C. difficile SK & F 3098)?
**A.** 2 µg/mL (≈ 1.38 µM)

**Q.** What about the MIC [21] of the same molecule?
**A.** 3.1 µg/mL (≈ 2.14 µM)

**Q.** And the MIC [22]?
**A.** 3.1 µg/mL (≈ 2.14 µM)

**Q.** What about the MIC (C. difficile SK & F 3096) of the same molecule?
**A.** 2 µg/mL (≈ 1.38 µM)

**Q.** And the “GLU (% Control)” value ([23]; 1.67 ppm)?
**A.** 100 % Control

**Q.** And the “LAC (% Control)” value ([23]; 1.67 ppm)?
**A.** 99 % Control

**Q.** What about the “LYS (% Control)” value ([23]; 1.67 ppm) of the same molecule?
**A.** 83 % Control

**Q.** What about the “VFA (% Control)” value ([23]; 1.67 ppm) of the same molecule?
**A.** 92 % Control

**Q.** And the “GLU (% Control)” value ([23]; 16.67 ppm)?
**A.** 189 % Control

**Q.** What about the “LAC (% Control)” value ([23]; 16.67 ppm) of the same molecule?
**A.** 59 % Control

**Q.** What about the “LYS (% Control)” value ([23]; 16.67 ppm) of the same molecule?
**A.** 42 % Control

**Q.** What about the “VFA (% Control)” value ([23]; 16.67 ppm) of the same molecule?
**A.** 280 % Control

**Q.** What about the “GLU (% Control)” value ([23]; 166.67 ppm) of the same molecule?
**A.** 190 % Control

**Q.** What about the “LAC (% Control)” value ([23]; 166.67 ppm) of the same molecule?
**A.** 64 % Control

**Q.** And the “LYS (% Control)” value ([23]; 166.67 ppm)?
**A.** 48 % Control

**Q.** What about the “VFA (% Control)” value ([23]; 166.67 ppm) of the same molecule?
**A.** 250 % Control

**Q.** And the MIC (C. difficile SK & F 3091)?
**A.** 2 µg/mL (≈ 1.38 µM)

**Q.** And the MIC [24]?
**A.** > 100 µg/mL

**Q.** And the MIC [25]?
**A.** 0.8 µg/mL (≈ 0.552 µM)

**Q.** What about the MIC (Staph. aureus SK & F 675; Table C, Methicillin Resistant) of the same molecule?
**A.** 1.6 µg/mL (≈ 1.1 µM)

**Q.** And the MIC (Staph. aureus SK & F 675; Table E)?
**A.** 3.1 µg/mL (≈ 2.14 µM)

**Q.** What about the MIC [26] of the same molecule?
**A.** 25 µg/mL (≈ 17.3 µM)

**Q.** And the MIC [27]?
**A.** 32 µg/mL (≈ 22.1 µM)

**Q.** And the MIC [28]?
**A.** > 100 µg/mL

**Q.** What about the MIC ([29]; Fusobacterium nucleatum, ATCC25586) of the same molecule?
**A.** 32 µg/mL (≈ 22.1 µM)

**Q.** And the MIC ([29]; Table F, Fusobacterium nucleatum ATCC 25586)?
**A.** 32 µg/mL (≈ 22.1 µM)

**Q.** And the MIC (B. fragilis H145)?
**A.** 32 µg/mL (≈ 22.1 µM)

**Q.** And the MIC [30]?
**A.** > 100 µg/mL
